target: T1, human μ opiate receptor (Homo sapiens, UniProt P35372); experiment: Affinity for the human μ opiate receptor ([3H]-naloxone displacement, CHO-K1 receptor membrane preparation, SPA); type: binding; conditions: test concentration of 1 μM
T1 construct: purchased PerkinElmer Life Sciences, Zaventem, Belgium RB-HOM; host or cells: CHO-K1 cells (membrane preparation)
Procedure, shortened: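 Readout is percent displacement of [3H]-naloxone (1 nmol/l) from human μ receptor in CHO-K1 membranes, measured at 1 μmol/l compound. Incubation runs 90 minutes at room temperature with WGA-SPA beads in Tris-HCl/BSA buffer; non-specific binding is defined with 100 μmol/l naloxone.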

T1 sequence (P35372 whole entry): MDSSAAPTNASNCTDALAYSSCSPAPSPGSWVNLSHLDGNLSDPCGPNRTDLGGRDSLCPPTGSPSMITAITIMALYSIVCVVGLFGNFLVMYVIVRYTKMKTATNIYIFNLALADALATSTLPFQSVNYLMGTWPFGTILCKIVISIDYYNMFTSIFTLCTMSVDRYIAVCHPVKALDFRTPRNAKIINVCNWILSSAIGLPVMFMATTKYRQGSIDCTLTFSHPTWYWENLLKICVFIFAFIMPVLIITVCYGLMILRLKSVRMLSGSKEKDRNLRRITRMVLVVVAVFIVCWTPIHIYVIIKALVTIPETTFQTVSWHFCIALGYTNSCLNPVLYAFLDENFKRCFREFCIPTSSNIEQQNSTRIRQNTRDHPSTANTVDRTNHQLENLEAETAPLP

Going from CN(C)C(c1ccccc1)C1CCC(CNC(=O)COCC2CCCN(S(=O)(=O)c3ccccc3)C2)CC1 (centres unmarked) [Example 129, N((4((dimethylamino)(phenyl)methyl)cyclohexyl)methyl)-2-((1-(phenylsulfonyl)piperidin-3-yl)methoxy)acetamide] to CN(C)C(c1cccc(F)c1)C1CCC(CNC(=O)COCC2CCCN(S(=O)(=O)c3ccccc3)C2)CC1 (centres unmarked) [Example 220], the “μ (binding on the μ opioid receptor, % inhibition)” value falls from 89% to 73%.

Going from Cc1ccc(S(=O)(=O)N(C)CCOCC(=O)NC2CCC(C(c3cccs3)N(C)C)CC2)cc1 (centres unmarked) [Example 168, N-(4-((dimethylamino) (thiophen-2-yl)methyl)cyclohexyl)-2-(2-(N,4-dimethylphenylsulfamido)ethoxy)acetamide] to Cc1ccc(S(=O)(=O)N(C)CCOCC(=O)NC2CCC(C(c3cccc(F)c3)N(C)C)CC2)cc1 (centres unmarked) [Example 226], the “μ (binding on the μ opioid receptor, % inhibition)” value falls from 83% to 74%.

First: COc1cc(C)c(S(=O)(=O)N(CCOCC(=O)NCC2CCC(C(c3ccccc3)N(C)C)CC2)Cc2ccccc2)c(C)c1C (centres unmarked) [Example 201]
Second: CCN(CCOCC(=O)NCC1CCC(C(c2ccccc2)N(C)C)CC1)S(=O)(=O)c1c(C)cc(OC)c(C)c1C (centres unmarked) [Example 231]
The “μ (binding on the μ opioid receptor, % inhibition)” value of the first is higher: 88% for the first, 82% for the second.

Going from CN(C)C(c1cccc(F)c1)C1CCC(CCNC(=O)COCC2CCCN2S(=O)(=O)c2ccc(Cl)c(Cl)c2)CC1 (centres unmarked) [Example 202] to CN(C)C(c1cccc(F)c1)C1CCC(NC(=O)COCC2CCCN2S(=O)(=O)c2ccc(Cl)c(Cl)c2)CC1 (centres unmarked) [Example 211], the “μ (binding on the μ opioid receptor, % inhibition)” value falls from 85% to 83%.

Going from COc1ccc(S(=O)(=O)N2CCCCC2CCOCC(=O)NCC2CCC(C(c3cccc(F)c3)N(C)C)CC2)cc1 (centres unmarked) [Example 203] to COc1ccc(S(=O)(=O)N2CCCCC2CCOCC(=O)NCCC2CCC(C(c3cccc(F)c3)N(C)C)CC2)cc1 (centres unmarked) [Example 213], the “μ (binding on the μ opioid receptor, % inhibition)” value rises from 83% to 87%.

Compared with CN(C)C(c1cccc(F)c1)C1CCC(NC(=O)COC2CCN(S(=O)(=O)c3ccc(Cl)cc3)C2)CC1 (centres unmarked) [Example 204], CN(C)C(c1cccc(F)c1)C1CCC(CNC(=O)COC2CCN(S(=O)(=O)c3ccc(Cl)cc3)C2)CC1 (centres unmarked) [Example 258] is lower in “μ (binding on the μ opioid receptor, % inhibition)” value: 81% for the first, 80% for the second.

First: CN(C)C(c1cccc(F)c1)C1CCC(NC(=O)COCCN(C)S(=O)(=O)c2ccc(F)cc2)CC1 (centres unmarked) [Example 205]
Second: COc1ccc(S(=O)(=O)N(C)CCOCC(=O)NC2CCC(C(c3cccc(F)c3)N(C)C)CC2)cc1 (centres unmarked) [Example 250]
The “μ (binding on the μ opioid receptor, % inhibition)” value of the first is higher: 76% for the first, 70% for the second.

Compared with COc1ccc(S(=O)(=O)N(C)CCOCC(=O)NC2CCC(C(c3cccs3)N(C)C)CC2)cc1OC (centres unmarked) [Example 206], COc1ccc(S(=O)(=O)N2CCCCC2COCC(=O)NC2CCC(C(c3cccs3)N(C)C)CC2)cc1OC (centres unmarked) [Example 261] is lower in “μ (binding on the μ opioid receptor, % inhibition)” value: 78% for the first, 72% for the second.

Going from CN(C)C(c1ccc(Cl)cc1)C1CCC(CNC(=O)COCCN(C)S(=O)(=O)c2c(Cl)cccc2Cl)CC1 (centres unmarked) [Example 207] to CN(C)C(c1ccc(F)cc1)C1CCC(CNC(=O)COCCN(C)S(=O)(=O)c2ccc(Cl)cc2Cl)CC1 (centres unmarked) [Example 249], the “μ (binding on the μ opioid receptor, % inhibition)” value falls from 77% to 70%.

Compared with CN(C)C(c1cccc(F)c1)C1CCC(NC(=O)COCCN(C)S(=O)(=O)c2c(Cl)cc(Cl)cc2Cl)CC1 (centres unmarked) [Example 208], CN(C)C(c1cccc(F)c1)C1CCC(NC(=O)COCCN(C)S(=O)(=O)c2ccc(Cl)cc2Cl)CC1 (centres unmarked) [Example 217] is higher in “μ (binding on the μ opioid receptor, % inhibition)” value: 79% for the first, 89% for the second.

Going from CCN(CCOCC(=O)NCCC1CCC(C(c2cccc(F)c2)N(C)C)CC1)S(=O)(=O)c1c(C)cc(OC)c(C)c1C (centres unmarked) [Example 209] to COc1cc(C)c(S(=O)(=O)N2CCC(OCC(=O)NCCC3CCC(C(c4cccc(F)c4)N(C)C)CC3)C2)c(C)c1C (centres unmarked) [Example 253], the “μ (binding on the μ opioid receptor, % inhibition)” value falls from 85% to 76%.

First: COc1ccc(S(=O)(=O)N2CCCCC2CCOCC(=O)NC2CCC(C(c3ccc(F)cc3)N(C)C)CC2)cc1 (centres unmarked) [Example 212]
Second: COc1ccc(S(=O)(=O)N2CCCCC2COCC(=O)NC2CCC(C(c3cccc(F)c3)N(C)C)CC2)cc1 (centres unmarked) [Example 255]
The “μ (binding on the μ opioid receptor, % inhibition)” value of the first is higher: 80% for the first, 72% for the second.

First: CN(C)C(c1cccs1)C1CCC(CCNC(=O)COC2CCCCC2N(C)S(=O)(=O)c2ccc(Cl)c(Cl)c2)CC1 (centres unmarked) [Example 214]
Second: CN(C)C(c1ccc(F)cc1)C1CCC(CCNC(=O)COC2CCCCC2N(C)S(=O)(=O)c2ccc(Cl)c(Cl)c2)CC1 (centres unmarked) [Example 244]
The “μ (binding on the μ opioid receptor, % inhibition)” value of the first is higher: 85% for the first, 81% for the second.

First: CN(C)C(c1cccc(F)c1)C1CCC(CCNC(=O)COCCN(C)S(=O)(=O)c2ccc(OC(F)(F)F)cc2)CC1 (centres unmarked) [Example 215]
Second: CN(C)C(c1cccc(F)c1)C1CCC(NC(=O)COCCN(C)S(=O)(=O)c2ccc(OC(F)(F)F)cc2)CC1 (centres unmarked) [Example 246]
The “μ (binding on the μ opioid receptor, % inhibition)” value of the first is higher: 85% for the first, 76% for the second.

Compared with Cc1ccc(S(=O)(=O)N2CCC(OCC(=O)NCCC3CCC(C(c4cccc(F)c4)N(C)C)CC3)C2)cc1 (centres unmarked) [Example 216], CN(C)C(c1cccc(F)c1)C1CCC(CCNC(=O)COC2CCN(S(=O)(=O)c3ccc(Cl)cc3)C2)CC1 (centres unmarked) [Example 247] is higher in “μ (binding on the μ opioid receptor, % inhibition)” value: 72% for the first, 75% for the second.

Compared with CN(C)C(c1cccc(F)c1)C1CCC(CCNC(=O)COCCN(C)S(=O)(=O)c2ccc(F)cc2)CC1 (centres unmarked) [Example 218], CN(C)C(c1cccc(F)c1)C1CCC(CNC(=O)COCCN(C)S(=O)(=O)c2ccc(F)cc2)CC1 (centres unmarked) [Example 229] is lower in “μ (binding on the μ opioid receptor, % inhibition)” value: 82% for the first, 79% for the second.

Going from CN(C)C(c1ccccc1)C1CCC(CNC(=O)COC2CCN(S(=O)(=O)c3ccc(F)cc3)C2)CC1 (centres unmarked) [Example 219] to CN(C)C(c1cccc(F)c1)C1CCC(CNC(=O)COC2CCN(S(=O)(=O)c3ccc(Cl)cc3Cl)C2)CC1 (centres unmarked) [Example 225], the “μ (binding on the μ opioid receptor, % inhibition)” value rises from 82% to 83%.

First: COc1cc(C)c(S(=O)(=O)N2CCCC(OCC(=O)NCCC3CCC(C(c4cccc(F)c4)N(C)C)CC3)C2)c(C)c1C (centres unmarked) [Example 221]
Second: COc1cc(C)c(S(=O)(=O)N2CCC(OCC(=O)NCCC3CCC(C(c4cccc(F)c4)N(C)C)CC3)CC2)c(C)c1C (centres unmarked) [Example 232]
The “μ (binding on the μ opioid receptor, % inhibition)” value of the first is higher: 82% for the first, 78% for the second.

COc1cc(C)c(S(=O)(=O)N2CCN(CCOCC(=O)NC3CCC(C(c4ccc(F)cc4)N(C)C)CC3)CC2)c(C)c1C (centres unmarked) [Example 222] and COc1cc(C)c(S(=O)(=O)N2CCN(CCOCC(=O)NCC3CCC(C(c4cccc(F)c4)N(C)C)CC3)CC2)c(C)c1C (centres unmarked) [Example 223] are the same in “μ (binding on the μ opioid receptor, % inhibition)” value: 77% for the first, 77% for the second.

Compared with COc1ccc(S(=O)(=O)N2CCCC2COCC(=O)NCCC2CCC(C(c3cccc(F)c3)N(C)C)CC2)cc1 (centres unmarked) [Example 224], Cc1ccc(S(=O)(=O)N(C)CCOCC(=O)NCCC2CCC(C(c3cccc(F)c3)N(C)C)CC2)cc1 (centres unmarked) [Example 240] is lower in “μ (binding on the μ opioid receptor, % inhibition)” value: 85% for the first, 74% for the second.

Cc1ccc(S(=O)(=O)N(C)CCOCC(=O)NCC2CCC(C(c3cccc(F)c3)N(C)C)CC2)cc1 (centres unmarked) [Example 227] and COc1ccc(S(=O)(=O)N(C)CCOCC(=O)NCC2CCC(C(c3ccccc3)N(C)C)CC2)cc1 (centres unmarked) [Example 242] are the same in “μ (binding on the μ opioid receptor, % inhibition)” value: 77% for the first, 77% for the second.

Going from COc1cc(C)c(S(=O)(=O)N(C)CCOCC(=O)NC2CCC(C(c3cccc(F)c3)N(C)C)CC2)c(C)c1 (centres unmarked) [Example 228] to COc1cc(C)c(S(=O)(=O)N(C)CCOCC(=O)NCC2CCC(C(c3cccc(F)c3)N(C)C)CC2)c(C)c1 (centres unmarked) [Example 248], the “μ (binding on the μ opioid receptor, % inhibition)” value rises from 76% to 81%.

First: CN(C)C(c1cccs1)C1CCC(CCNC(=O)COC2CCN(S(=O)(=O)c3ccccc3)CC2)CC1 (centres unmarked) [Example 230]
Second: CN(C)C(c1cccc(F)c1)C1CCC(CCNC(=O)COC2CCN(S(=O)(=O)c3ccc(Cl)cc3Cl)C2)CC1 (centres unmarked) [Example 259]
The “μ (binding on the μ opioid receptor, % inhibition)” value of the first is lower: 82% for the first, 83% for the second.

First: COc1ccc(S(=O)(=O)N2Cc3ccccc3CC2COCC(=O)NC2CCC(C(c3ccc(F)cc3)N(C)C)CC2)cc1 (centres unmarked) [Example 234]
Second: COc1ccc(S(=O)(=O)N2CCCCC2COCC(=O)NC2CCC(C(c3cccs3)N(C)C)CC2)cc1 (centres unmarked) [Example 243]
The “μ (binding on the μ opioid receptor, % inhibition)” value of the first is lower: 76% for the first, 79% for the second.

First: Cc1cc(C)c(S(=O)(=O)N(C)CCOCC(=O)NC2CCC(C(c3cccs3)N(C)C)CC2)c(C)c1 (centres unmarked) [Example 235]
Second: COc1cc(C)c(S(=O)(=O)N(C)CCOCC(=O)NC2CCC(C(c3ccccc3)N(C)C)CC2)c(C)c1 (centres unmarked) [Example 239]
The “μ (binding on the μ opioid receptor, % inhibition)” value of the first is higher: 76% for the first, 38% for the second.

First: CN(C)C(c1ccc(Cl)cc1)C1CCC(CCNC(=O)COCCN(C)S(=O)(=O)c2ccc(F)cc2)CC1 (centres unmarked) [Example 241]
Second: CN(C)C(c1ccc(F)cc1)C1CCC(NC(=O)COC2CCCCC2N(C)S(=O)(=O)c2ccc(Cl)c(Cl)c2)CC1 (centres unmarked) [Example 256]
The “μ (binding on the μ opioid receptor, % inhibition)” value of the first is lower: 67% for the first, 73% for the second.

Going from COc1cc(C)c(S(=O)(=O)N2CCC(OCC(=O)NC3CCC(C(c4cccc(F)c4)N(C)C)CC3)C2)c(C)c1 (centres unmarked) [Example 251] to COc1cc(C)c(S(=O)(=O)N2CCC(OCC(=O)NCC3CCC(C(c4cccc(F)c4)N(C)C)CC3)C2)c(C)c1C (centres unmarked) [Example 252], the “μ (binding on the μ opioid receptor, % inhibition)” value rises from 77% to 82%.

Compared with COc1cc(C)c(S(=O)(=O)N(CCOCC(=O)NCCC2CCC(C(c3cccs3)N(C)C)CC2)Cc2ccccc2)c(C)c1C (centres unmarked) [Example 254], COc1ccc(S(=O)(=O)N2CCC(OCC(=O)NCC3CCC(C(c4ccc(Cl)cc4)N(C)C)CC3)C2)cc1OC (centres unmarked) [Example 260] is lower in “μ (binding on the μ opioid receptor, % inhibition)” value: 83% for the first, 76% for the second.
